From patent US20110092476A1, “Bicycloheteroaryl compounds as P2X7 modulators and uses thereof” (Renovis, Inc., priority 2006, published 2011)

What follows are molecules tested against T1, P2X7 receptor (Homo sapiens, UniProt Q99572) (assay: IL-1β release assay in differentiated THP-1 cells stimulated with BzATP (Example 9)). Conditions: 0.1 μM compound (symbols *); differentiated THP-1 cells, BzATP 250 uM; read-out: IL-1β % Inhib. @ 0.3 or 0.1 uM.
T1 construct: host or cells: THP-1 cells differentiated with LPS and IFN-γ
T1 sequence (Q99572 1-595): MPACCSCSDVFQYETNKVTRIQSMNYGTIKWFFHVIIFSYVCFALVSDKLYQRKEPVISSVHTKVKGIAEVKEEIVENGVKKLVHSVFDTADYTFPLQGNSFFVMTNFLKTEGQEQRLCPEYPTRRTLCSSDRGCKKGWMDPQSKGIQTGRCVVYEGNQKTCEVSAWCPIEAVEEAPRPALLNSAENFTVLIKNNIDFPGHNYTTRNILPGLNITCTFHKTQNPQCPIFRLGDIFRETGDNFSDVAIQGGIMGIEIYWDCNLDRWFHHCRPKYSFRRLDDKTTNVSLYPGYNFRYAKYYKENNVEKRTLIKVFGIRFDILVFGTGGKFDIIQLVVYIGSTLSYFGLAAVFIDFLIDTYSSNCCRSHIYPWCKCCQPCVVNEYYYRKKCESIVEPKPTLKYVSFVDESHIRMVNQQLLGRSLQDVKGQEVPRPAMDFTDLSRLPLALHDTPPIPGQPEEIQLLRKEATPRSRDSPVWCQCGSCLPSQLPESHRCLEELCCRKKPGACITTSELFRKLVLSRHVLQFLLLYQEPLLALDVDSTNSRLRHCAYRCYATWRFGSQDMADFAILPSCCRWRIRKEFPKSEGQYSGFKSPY
Assay type: cell-based
Description: THP-1 cells (ATCC Cat #285-IF-100) are plated in 96 well plates at a concentration of 200,000 cells per well and allowed to differentiate in RPMI-1640 media (ATCC Cat #30-2001) containing 10% FBS, 100 IU/mL penicillin, 100 ug/mL streptomycin, 100 ng/mL LPS and 100 ng/mL IFN-γ for 16 hours. Following differentiation, the cells are treated for an additional 2 hours in RPMI-1640 media containing 100 IU/mL penicillin, 100 ug/mL streptomycin and fresh LPS at 100 ng/mL. The cells are then pretreated for 30 minutes with the compound of interest at the appropriate concentration in RPMI media containing 100 IU/mL penicillin, 100 ug/mL streptomycin. Following the pretreatment 2′,3′-O-(4-benzoylbenzoyl)-adenosine 5′-triphosphate (Sigma Aldrich Cat #B6396) is added to a final concentration of 250 uM and the cells are incubated for an additional 45 minutes. 30 uL of cell supernatant is then collected and IL-1β levels determined via ELISA (R&D systems Cat. #HSLB50) according to manufacturer's recommendations using the Tecan Safire plate reader. Background adjusted IL-1β levels of drug treated and non-treated cells are used to calculate the percent inhibition.
The compounds set forth in Table 1 were tested for activity in a cellular model as described herein. Specifically, cells were pretreated with differing amounts of the compound under test and released IL-1β determined as in Example 9, above. Measurements were made and IC50 values, presented in Table 2, below, were determined by fitting the data to a four parameter logistic equation using GraphPad Prism software (GraphPad Software, Inc). The equation may be expressed by the following formula:
Y=Bottom+(Top−Bottom)/(1+10̂((Log EC50−X)*HillSlope))
Where X is the logarithm of concentration, Y is the response and Y starts at Bottom and goes to Top with a sigmoid shape.

Row | Compound | inhibition at 0.1 µM [%]
1 | Cc1ccccc1CC(=O)Nc1cccc2c(=O)n(CC3(O)CCCCC3)ccc12 [Compound 89] | 0 to 25
2 | CC(O)Cn1ccc2c(NC(=O)Cc3ccc4c(c3)OCO4)cccc2c1=O (stereo not drawn) [Compound 165] | 0 to 25
3 | CC(CO)n1ccc2c(NC(=O)c3cccc4c3OCCO4)cccc2c1=O (stereo not drawn) [Compound 116] | 0 to 25
4 | CCOc1ccc(C(=O)Nc2cccc3c(=O)n(CC4(O)CCCCC4)ccc23)cc1 [Compound 21] | 0 to 25
5 | CC(O)Cn1ccc2c(NC(=O)CCCc3ccccc3)cccc2c1=O (stereo not drawn) [Compound 163] | 0 to 25
6 | Cc1ccc(C)c(CC(=O)Nc2cccc3c(=O)n(CC(C)O)ccc23)c1 (stereo not drawn) [Compound 130] | 26 to 50
7 | CC(C)(O)Cn1ccc2c(NC(=O)CCc3ccccc3Cl)cccc2c1=O [Compound 194] | 0 to 25
8 | COc1ccc(CC(=O)Nc2cccc3c(=O)n(CC(C)O)ccc23)c(OC)c1 (stereo not drawn) [Compound 174] | 0 to 25
9 | COc1ccc(C(=O)Nc2cccc3c(=O)n(CC(C)(C)O)ccc23)c(C)c1 [Compound 186] | 0 to 25
10 | COc1ccc(C(=O)Nc2cccc3c(=O)n(CC(C)(C)O)ccc23)cc1Cl [Compound 192] | 0 to 25
11 | Cc1ccc(C)c(CC(=O)Nc2cccc3c(=O)n(CC(C)(C)O)ccc23)c1 [Compound 191] | 0 to 25

The remaining lines, values ahead:

Row | inhibition at 0.1 µM [%] | Compound
12 | 0 to 25 | COc1ccc(CC(=O)Nc2cccc3c(=O)n(C(C)CO)ccc23)c(OC)c1 (stereo not drawn) [Compound 120]
13 | 0 to 25 | CCOc1cccc(C(=O)Nc2cccc3c(=O)n(C(C)CO)ccc23)c1 (stereo not drawn) [Compound 93]
14 | 26 to 50 | COc1ccc(CCC(=O)Nc2cccc3c(=O)n(CC(C)O)ccc23)cc1 (stereo not drawn) [Compound 150]
15 | 0 to 25 | CC(O)Cn1ccc2c(NC(=O)c3ccc(C(C)(C)C)cc3)cccc2c1=O (stereo not drawn) [Compound 147]
16 | 0 to 25 | Cc1ccc(CC(=O)Nc2cccc3c(=O)n(CC(C)O)ccc23)cc1 (stereo not drawn) [Compound 162]
17 | 0 to 25 | CC(CO)n1ccc2c(NC(=O)c3ccc(Cl)cc3Cl)cccc2c1=O (stereo not drawn) [Compound 96]
18 | 0 to 25 | CC(CO)n1ccc2c(NC(=O)c3cc(Cl)ccc3Cl)cccc2c1=O (stereo not drawn) [Compound 97]
19 | 0 to 25 | CC(CO)n1ccc2c(NC(=O)CCCc3ccccc3)cccc2c1=O (stereo not drawn) [Compound 111]
20 | 0 to 25 | CC(O)Cn1ccc2c(NC(=O)c3cc(Cl)ccc3Cl)cccc2c1=O (stereo not drawn) [Compound 138]
21 | 0 to 25 | COc1ccc(CC(=O)Nc2cccc3c(=O)n(C(C)CO)ccc23)cc1OC (stereo not drawn) [Compound 109]

Same assay, conditions: 0.1 μM compound; differentiated THP-1 cells, BzATP 250 uM; "*" symbols; read-out: IL-1β % Inhib. @ 0.3 or 0.1 uM

Row | Compound | inhibition at 0.1 µM [%]
22 | COc1cc(CC(=O)Nc2cccc3c(=O)n(CC(C)(C)O)ccc23)cc(OC)c1 [Compound 219] | 0 to 25
23 | COc1ccc(C(=O)Nc2cccc3c(=O)n(CC(C)(C)O)ccc23)cc1C [Compound 227] | 0 to 25
24 | Cc1cccc(CC(=O)Nc2cccc3c(=O)n(CC(C)(C)O)ccc23)c1 [Compound 213] | 0 to 25
25 | CC(C)(O)Cn1ccc2c(NC(=O)Cc3csc4ccccc34)cccc2c1=O [Compound 224] | 26 to 50
26 | COc1ccccc1CC(=O)Nc1cccc2c(=O)n(CC(C)(C)O)ccc12 [Compound 209] | 0 to 25
27 | Cc1ccc(C(=O)Nc2cccc3c(=O)n(CC(C)(C)O)ccc23)c(C)c1 [Compound 201] | 0 to 25
28 | CCOc1ccc(CC(=O)Nc2cccc3c(=O)n(CC(C)(C)O)ccc23)cc1 [Compound 215] | 26 to 50
29 | COc1ccc(CC(=O)Nc2cccc3c(=O)n(CC(C)(C)O)ccc23)cc1 [Compound 214] | 0 to 25

Next, values leading:

Row | inhibition at 0.1 µM [%] | Compound
30 | 0 to 25 | CC(C)(O)Cn1ccc2c(NC(=O)Cc3ccccc3Cl)cccc2c1=O [Compound 208]
31 | 0 to 25 | CC(C)(O)Cn1ccc2c(NC(=O)c3cc(Cl)ccc3Cl)cccc2c1=O [Compound 199]

Same assay, conditions: 0.3 μM compound (symbols +); differentiated THP-1 cells, BzATP 250 uM; read-out: IL-1β % Inhib. @ 0.3 or 0.1 uM

Row | Compound | inhibition at 0.3 µM [%]
32 | O=C(Cc1ccc(F)cc1)Nc1cccc2c(=O)n(CCO)ccc12 [Compound 73] | 26 to 50
33 | O=C(Cc1cc(C(F)(F)F)cc(C(F)(F)F)c1)Nc1cccc2c(=O)n(CCO)ccc12 [Compound 64] | 51 to 75
34 | Cc1cc(C(=O)Nc2cccc3c(=O)n(CC4(O)CCCCC4)ccc23)ccc1F [Compound 48] | 0 to 25
35 | COc1ccc(CC(=O)Nc2cccc3c(=O)n(CCO)ccc23)cc1Br [Compound 66] | > 76
36 | COc1c(C)cc(C(=O)Nc2cccc3c(=O)n(CC4(O)CCCCC4)ccc23)cc1C [Compound 40] | 0 to 25
37 | COc1ccc(CC(=O)Nc2cccc3c(=O)n(CC4(O)CCCCC4)ccc23)cc1OC [Compound 31] | 0 to 25
38 | CS(=O)(=O)c1ccc(CCC(=O)Nc2cccc3c(=O)n(CCO)ccc23)cc1 [Compound 71] | 0 to 25
39 | O=C(Nc1cccc2c(=O)n(CC3(O)CCCCC3)ccc12)c1ccc2ccccc2c1 [Compound 27] | 0 to 25
40 | CCOc1ccc(CC(=O)Nc2cccc3c(=O)n(CC4(O)CCCCC4)ccc23)cc1 [Compound 34] | 0 to 25

Results, then the molecule that gave them:

Row | inhibition at 0.3 µM [%] | Compound
41 | 0 to 25 | CCC(C(=O)Nc1cccc2c(=O)n(CCO)ccc12)c1ccccc1 (stereo not drawn) [Compound 74]
42 | 0 to 25 | CC(C)C(C(=O)Nc1cccc2c(=O)n(CCO)ccc12)c1ccc(Cl)cc1 (stereo not drawn) [Compound 78]

Same assay, conditions: 0.3 μM compound; differentiated THP-1 cells, BzATP 250 uM; "+" symbols; read-out: IL-1β % Inhib. @ 0.3 or 0.1 uM

Row | Compound | inhibition at 0.3 µM [%]
43 | Cc1ccc2c(=O)n(CCO)ccc2c1NC(=O)Cc1cccc(C(F)(F)F)c1F [Compound 396] | > 76
44 | O=C(Cc1ccc(C(F)(F)F)cc1C(F)(F)F)Nc1cccc2c(=O)n(C(CO)CO)ccc12 [Compound 233] | 26 to 50
45 | COc1ccc2c(=O)n([C@H](C)CO)ccc2c1NC(=O)Cc1ccc(C(F)(F)F)c(F)c1 [Compound 358] | 0 to 25

Other lines, results leading:

Row | inhibition at 0.3 µM [%] | Compound
46 | 51 to 75 | C[C@H](C(N)=O)n1ccc2c(NC(=O)Cc3ccc(OC(F)(F)F)cc3)cccc2c1=O [Compound 311]
47 | 26 to 50 | NC(=O)[C@H](CO)n1ccc2c(NC(=O)Cc3ccc(Cl)c(Cl)c3)cccc2c1=O [Compound 253]
48 | > 76 | CC(C)[C@H](CO)n1ccc2c(NC(=O)[C@H](C)c3ccc(Cl)cc3)cccc2c1=O [Compound 273, (R)-2-(4-Chloro-phenyl)-N—[(R)-2-(1-hydroxymethyl-2-methyl-propyl)-1-oxo-1,2-dihydro-isoquinolin-5-yl]-propionamide]
49 | > 76 | C[C@H](C(N)=O)n1ccc2c(NC(=O)Cc3ccc(F)cc3Cl)cccc2c1=O [Compound 291]
50 | > 76 | CC(C)[C@H](CO)n1ccc2c(NC(=O)[C@@H](C)c3ccc(Cl)cc3)cccc2c1=O [Compound 274]
51 | > 76 | C[C@H](C(N)=O)n1ccc2c(NC(=O)Cc3ccc(F)cc3F)cccc2c1=O [Compound 293]
52 | 51 to 75 | C[C@H](C(N)=O)n1ccc2c(NC(=O)Cc3ccc(F)cc3C(F)(F)F)cccc2c1=O [Compound 295]
53 | 26 to 50 | C[C@H](C(N)=O)n1ccc2c(NC(=O)Cc3ccc(C#N)cc3)cccc2c1=O [Compound 287]
54 | 26 to 50 | C[C@H](C(N)=O)n1ccc2c(NC(=O)C(C)(C)c3ccc(Cl)cc3)cccc2c1=O [Compound 264]
55 | > 76 | CNC(=O)[C@@H](C(C)C)n1ccc2c(NC(=O)[C@H](C)c3ccc(Cl)cc3)cccc2c1=O [Compound 277]
56 | > 76 | C[C@@H](C(=O)Nc1cccc2c(=O)n([C@@H](C)CO)ccc12)c1ccc(Cl)c(Cl)c1 [Compound 317]

Same assay, conditions: THP-1 cells, BzATP 250 uM, IL-1β by ELISA

Row | Compound | IC50 [nM]
57 | C[C@H](C(N)=O)n1ccc2c(NC(=O)Cc3ccc(OC(F)(F)F)cc3)cccc2c1=O [Compound 311] | 150
58 | Cc1ccc2c(=O)n(CCO)ccc2c1NC(=O)Cc1cccc(C(F)(F)F)c1F [Compound 396] | 10.7
59 | CC(C)[C@H](CO)n1ccc2c(NC(=O)[C@@H](C)c3ccc(Cl)cc3)cccc2c1=O [Compound 274] | 14.5
60 | C[C@H](C(N)=O)n1ccc2c(NC(=O)C(C)(C)c3ccc(Cl)cc3)cccc2c1=O [Compound 264] | 443
